According to US4920127A, “Substituted indoles and their use as 5-HT3 receptor antagonists” (Beecham Group p.l.c., priority 1987, dated 1990):
Counter-ions that a name gives are not always drawn.

tested on: von Bezold-Jarisch reflex evoked by 5-HT; test: Antagonism of the von Bezold-Jarisch reflex evoked by 5-HT in the anaesthetised rat; assay type: in vivo; conditions: iv, male rats, urethane anaesthesia, compounds intravenously, 5-HT usually 6 μg/kg i.v., heart rate changes, read-out: ED50 (concentration required to reduce the 5HT-evoked response to 50% of the control response)
Procedure: Antagonism of the von Bezold-Jarisch reflex
The compounds were evaluated for antagonism of the von Bezold-Jarisch reflex evoked by 5-HT in the anaesthetised rat according to the following method:
Male rats, 250-350 g, were anaesthetised with urethane (1.25 g/kg intraperitoneally) and blood pressure and heart rate recorded as described by Fozard J. R. et al., J. Cardiovasc. Pharmacol. 2, 229-245 (1980). A submaximal dose of 5-HT (usually 6 μg/kg) was given repeatedly by the intravenous route and changes in heart rate quantified. Compounds were given intravenously and the concentration required to reduce the 5HT-evoked response to 50% of the control response (ED50) was then determined.

SMILES | ED50 [µg/kg]
O=C(NC1CN2CCC1CC2)N1CC(c2ccccc2)c2ccccc21 (stereo not shown) [Compound 8, N-(1-Azabicyclo[2.2.2]oct-3-yl)2,3-dihydro-3-phenylindol-1-yl urea hydrochloride] | 1.2
CN1[C@@H]2CC[C@H]1C[C@@H](NC(=O)N1CC3(CCCCC3)c3ccccc31)C2 [Compound 1] | 3.6
CN1[C@@H]2CC[C@H]1C[C@@H](NC(=O)N1CC3(CC3)c3ccccc31)C2 [Compound 6] | 3.5
CN1[C@@H]2CC[C@H]1C[C@@H](NC(=O)N1CC3(CCCC3)c3ccccc31)C2 [Compound 10] | 1.8
